Source: patent publication US20230391760A1, “HETEROCYCLIC GLP-1 AGONISTS” (Gasherbrum Bio, Inc., priority 2020, published 2023)
pEC50: −log10 of the molar value.

Target: GLP-1 Receptor (Homo sapiens, UniProt P43220)
Experiment: GLP-1R agonist cAMP stimulation assay (HEK293/GLP1R/CRE-LUC cells, cAMP dynamic 2 Kit)
Format: cell-based
Conditions: HEK293/CRE-Luc cell line stably expressing the GLP-1 Receptor, 30 min at 37° C.
Outline: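 cAMP measured by HTRF competition (d2-labelled cAMP with cryptate antibody, 1 h, room temperature, protected from light). Before that, GLP1R/CRE-Luc HEK293 cells (1000/well) were exposed for 30 min at 37 °C to half-log compound dilutions in DPBS containing IBMX 0.5 mM and BSA 0.1%.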

Chain of GLP-1 Receptor (P43220 24-463, species assumed): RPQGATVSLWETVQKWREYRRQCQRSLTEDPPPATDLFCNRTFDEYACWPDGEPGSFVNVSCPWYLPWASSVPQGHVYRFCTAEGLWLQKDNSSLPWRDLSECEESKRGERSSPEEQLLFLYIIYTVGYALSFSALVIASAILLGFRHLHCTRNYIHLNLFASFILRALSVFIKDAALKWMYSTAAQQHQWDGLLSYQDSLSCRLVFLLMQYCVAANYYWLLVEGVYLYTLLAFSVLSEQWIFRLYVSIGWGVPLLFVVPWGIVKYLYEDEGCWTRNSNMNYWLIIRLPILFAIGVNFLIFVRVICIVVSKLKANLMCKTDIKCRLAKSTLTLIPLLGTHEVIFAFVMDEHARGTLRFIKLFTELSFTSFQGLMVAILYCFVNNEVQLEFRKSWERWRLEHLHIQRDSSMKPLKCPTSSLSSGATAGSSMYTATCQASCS

Row | SMILES | pEC50
1 | Cc1cnc(-c2ccc3c(c2)nc(CN2CCC(c4cccc5c4O[C@@](C)(c4ccc(Cl)cc4F)O5)CC2)n3C[C@@H]2CCO2)nc1 [Compound 236a, 2-((4-((S)-2-(4-chloro-2-fluorophenyl)-2-methylbenzo[d][1,3]dioxol-4-yl)piperidin-1-yl)methyl)-5-(5-methylpyrimidin-2-yl)-1-(((S)-oxetan-2-yl)methyl)-1H-benzo[d]imidazole] | 8.70
2 | O=c1[nH]c(-c2ccc3c(c2)nc(CC2CC=C(c4nc(OCc5ccc(Cl)cc5F)ncc4F)CC2)n3C[C@@H]2CCO2)no1 (stereo partly drawn) [Compound 242a, 3-(2-((4-(2-((4-chloro-2-fluorobenzyl)oxy)-5-fluoropyrimidin-4-yl)cyclohex-3-en-1-yl)methyl)-1-(((S)-oxetan-2-yl)methyl)-1H-benzo[d]imidazol-5-yl)-1,2,4-oxadiazol-5(4H)-one] | 9.44
3 | COc1ccc(C(=O)Nc2ccc3c(c2)nc(CN2CCC(c4cccc(OCc5ccc(Cl)cc5F)n4)CC2)n3C[C@@H]2CCO2)cn1 [Compound 175a, N-{2-[(4-{6-[(4-chloro-2-fluorophenyl)methoxy]pyridin-2-yl}piperidin-1-yl)methyl]-1-{[(2S)-oxetan-2-yl]methyl}-1H-1,3-benzodiazol-5-yl}-6-methoxypyridine-3-carboxamide] | 8.82
4 | O=C(O)c1ccc2c(c1)nc(CN1CC=C(c3cccc(OCc4ccc(Cl)cc4F)n3)CC1)n2C[C@@H]1CCO1 [Compound 111a, (S)-2-((6-((4-chloro-2-fluorobenzyl)oxy)-3′,6′-dihydro-[2,4′-bipyridin]-1′(2′H)-yl)methyl)-1-(oxetan-2-ylmethyl)-1H-benzo[d]imidazole-5-carboxylic acid] | 8.96
5 | O=c1[nH]c(-c2cc3nc(CN4CC=C(c5cccc(OCc6ccc(Cl)cc6F)c5)CC4)n(C[C@@H]4CCO4)c3cn2)no1 [Compound 308a, 3-{2-[(4-{3-[(4-chloro-2-fluorophenyl)methoxy]phenyl}-1,2,3,6-tetrahydropyridin-1-yl)methyl]-3-{[(2S)-oxetan-2-yl]methyl}-3H-imidazo[4,5-c]pyridin-6-yl}-4,5-dihydro-1,2,4-oxadiazol-5-one] | 9.30
6 | Cc1nnc(-c2cnc3c(c2)nc(CN2CCC(c4cccc5c4OC(C)(c4ccc(Cl)cn4)O5)CC2)n3C[C@@H]2CCO2)[nH]1 (stereo partly drawn) [Compound 269a, 5-chloro-2-[2-methyl-4-(1-{[6-(5-methyl-4H-1,2,4-triazol-3-yl)-3-{[(2S)-oxetan-2-yl]methyl}-3H-imidazo[4,5-b]pyridin-2-yl]methyl}piperidin-4-yl)-2H-1,3-benzodioxol-2-yl]pyridine] | 8.70
7 | COCCn1c(CN2CCC(c3cccc4c3OC(C)(c3ccc(Cl)cc3F)O4)CC2)nc2cc(-c3noc(=O)[nH]3)ccc21 (centres unmarked) [Compound 230a, 3-(2-((4-(2-(4-chloro-2-fluorophenyl)-2-methylbenzo[d][1,3]dioxol-4-yl)piperidin-1-yl)methyl)-1-(2-methoxyethyl)-1H-benzo[d]imidazol-5-yl)-1,2,4-oxadiazol-5(4H)-one] | 9.06
8 | CN1CCCC(C(=O)Nc2ccc3c(c2)nc(CN2CCC(c4cccc(OCc5ccc(Cl)cc5F)n4)CC2)n3C[C@@H]2CCO2)C1 (stereo partly drawn) [Compound 202a, N-{2-[(4-{6-[(4-chloro-2-fluorophenyl)methoxy]pyridin-2-yl}piperidin-1-yl)methyl]-1-{[(2S)-oxetan-2-yl]methyl}-1H-1,3-benzodiazol-5-yl}-1-methylpiperidine-3-carboxamide] | 8.22
9 | O=C(CC1CC1)Nc1ccc2c(c1)nc(CN1CCC(c3cccc(OCc4ccc(Cl)cc4F)n3)CC1)n2C[C@@H]1CCO1 [Compound 106a, (S)—N-(2-((4-(6-((4-chloro-2-fluorobenzyl)oxy)pyridin-2-yl)piperidin-1-yl)methyl)-1-(oxetan-2-ylmethyl)-1H-benzo[d]imidazol-5-yl)-2-cyclopropylacetamide] | 8.92
10 | CC1(c2ccc(C#N)cc2F)Oc2cccc(C3CCN(Cc4nc5cc(-c6nnc(C7CC7)[nH]6)cnc5n4C[C@@H]4CCO4)CC3)c2O1 (stereo partly drawn) [Compound 276a, 4-[4-(1-{[6-(5-cyclopropyl-4H-1,2,4-triazol-3-yl)-3-{[(2S)-oxetan-2-yl]methyl}-3H-imidazo[4,5-b]pyridin-2-yl]methyl}piperidin-4-yl)-2-methyl-2H-1,3-benzodioxol-2-yl]-3-fluorobenzonitrile] | 9.25
11 | O=C(Nc1ccc2c(c1)nc(CN1CCC(c3cccc(OCc4ccc(Cl)cc4F)n3)CC1)n2C[C@@H]1CCO1)c1ccn2cncc2c1 [Compound 179a, N-{2-[(4-{6-[(4-chloro-2-fluorophenyl)methoxy]pyridin-2-yl}piperidin-1-yl)methyl]-1-{[(2S)-oxetan-2-yl]methyl}-1H-1,3-benzodiazol-5-yl}imidazo[1,5-a]pyridine-7-carboxamide] | 9.57
12 | Fc1cc(Cl)ccc1COc1nc(C2CCN(Cc3nc4cc(-c5nnc(C(F)(F)F)[nH]5)nnc4n3C[C@@H]3CCO3)CC2)ncc1F [Compound 510a, 4-[(4-chloro-2-fluorophenyl)methoxy]-5-fluoro-2-{1-[(7-{[(2S)-oxetan-2-yl]methyl}-3-[5-(trifluoromethyl)-4H-1,2,4-triazol-3-yl]-7H-imidazo[4,5-c]pyridazin-6-yl)methyl]piperidin-4-yl}pyrimidine] | 9.80
13 | O=C(Nc1ccc2c(c1)nc(CN1CCC(c3cccc(OCc4ccc(Cl)cc4F)n3)CC1)n2C[C@@H]1CCO1)C1CCCOC1 (stereo partly drawn) [Compound 154a, N-{2-[(4-{6-[(4-chloro-2-fluorophenyl)methoxy]pyridin-2-yl}piperidin-1-yl)methyl]-1-{[(2S)-oxetan-2-yl]methyl}-1H-1,3-benzodiazol-5-yl}oxane-3-carboxamide] | 9.89
14 | O=C(Nc1ccc2c(c1)nc(CN1CCC(c3cccc(OCc4ccc(Cl)cc4F)n3)CC1)n2C[C@@H]1CCO1)C1CCO1 (stereo partly drawn) [Compound 129a, N-{2-[(4-{6-[(4-chloro-2-fluorophenyl)methoxy]pyridin-2-yl}piperidin-1-yl)methyl]-1-{[(2S)-oxetan-2-yl]methyl}-1H-1,3-benzodiazol-5-yl}oxetane-2-carboxamide] | 9.25
15 | N#Cc1ccc(COc2cccc(C3CCN(Cc4nc5cc(-c6nnc(C(F)(F)F)[nH]6)cnc5n4C[C@@H]4CCO4)CC3)n2)c(F)c1 [Compound 325a, 3-fluoro-4-{[(6-{1-[(3-{[(2S)-oxetan-2-yl]methyl}-6-[5-(trifluoromethyl)-4H-1,2,4-triazol-3-yl]-3H-imidazo[4,5-b]pyridin-2-yl)methyl]piperidin-4-yl}pyridin-2-yl)oxy]methyl}benzonitrile] | 10.92
16 | Fc1cc(Cl)ccc1COc1nc(C2CCN(Cc3nc4cc(-c5nnc(C(F)(F)F)[nH]5)ncc4n3C[C@@H]3CCO3)CC2)ccc1F [Compound 472a, 2-[(4-chloro-2-fluorophenyl)methoxy]-3-fluoro-6-{1-[(3-{[(2S)-oxetan-2-yl]methyl}-6-[5-(trifluoromethyl)-4H-1,2,4-triazol-3-yl]-3H-imidazo[4,5-c]pyridin-2-yl)methyl]piperidin-4-yl}pyridine] | 10.92
17 | CC1(c2ccc(Cl)cc2F)Oc2cccc(C3CCN(Cc4nc5cc(-c6cn(CCS(C)(=O)=O)nn6)ccc5n4C[C@@H]4CCO4)CC3)c2O1 (stereo partly drawn) [Compound 250a, 2-({4-[2-(4-chloro-2-fluorophenyl)-2-methyl-2H-1,3-benzodioxol-4-yl]piperidin-1-yl}methyl)-5-[1-(2-methanesulfonylethyl)-1H-1,2,3-triazol-4-yl]-1-{[(2S)-oxetan-2-yl]methyl}-1H-1,3-benzodiazole] | 9.96
